Results reported in patent US8618147B2, “Modified macrophage migration inhibitory factor inhibitors” (The Feinstein Institute for Medical Research, priority 2006, dated 2013).
Entries after “also recorded” stand apart in the source; their conditions may differ.

How the values were obtained:
[1] = test system: leukocyte recruitment; test: Air pouch carrageenan model of acute inflammation, leukocyte recruitment; assay type: in vivo, Swiss Webster male mice; details: 40 mg/kg single i.p., 15 min before 1% carrageenan into air pouch, 5 hr after carrageenan
Procedure: Air pouches were made according to standard procedures (Garcia-Ramallo et al., 2002) on Swiss Webster male mice (25-30 g) by injecting sterile air s.c. on day 0 (6 ml) and day 3 (3 ml). […] After 15 min, the animals were challenged by injecting 1 ml 1% carrageenan (in PBS) into the air pouch cavity. Five hr after carrageenan injection the animals were sacrificed, the pouches washed with PBS, exudate collected, and the total number of infiltrating cells quantitated.

[2] = test system: rheumatoid arthritis fibroblast-like synoviocytes (RA-FLS); test: Cell invasion through Matrigel Invasion Chambers; assay type: cell-based; details: 100 nM ISO-63 or 25 μM ISO-1, one day treatment, 24 hours incubation
Procedure: Invasion was assayed by measuring cell invasion through Matrigel Invasion Chambers (Becton Dickinson, Mass.). […] 500 μl of whole medium containing 10% FBS and 10% human serum and was added to the bottom chamber. After 24 hours of incubation at 37° C., cells on the upper surface of the filter were wiped off with a Q-tip and the filter was fixed in 4% formaldehyde/PBS. After staining with crystal violet, migrated cells were counted using an inverted microscope.

[3] = versus 40% control; cited from earlier work
[4] = target: MIF (Homo sapiens (Human), UniProt P14174); test: MIF dopachrome tautomerase assay; assay type: biochemical; details: (S)-isomer relative to (R)-isomer
Sequence of MIF (P14174 2-115): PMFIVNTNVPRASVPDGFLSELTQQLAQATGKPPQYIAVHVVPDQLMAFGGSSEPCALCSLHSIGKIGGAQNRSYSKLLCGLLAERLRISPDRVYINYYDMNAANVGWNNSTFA
Procedure: MIF tautomerase activity was measured by UV-Visible recording spectrophotometry (SHIMADZU, UV1600U). A fresh stock solution of L-dopachrome methyl ester was prepared at 2.4 mM through oxidation of L-3,4-dihydroxyphenylalanine methyl ester with sodium periodate. 1 μL of MIF solution (800-900 ng/mL) and 1 μL of a DMSO solution with various concentrations of the enzymatic inhibitor were added into a plastic cuvette (10 mm, 1.5 mL) containing 0.7 mL assay buffer (50 mM potassium phosphate, pH 7.2). Then L-dopachrome methyl ester solution (0.3 mL) was added to the assay buffer mixture. Activity was determined at room temperature and the spectrometric measurements were made at λ=475 nm for 20 seconds by monitoring the rate of decolorization of L-dopachrome methyl ester in comparison to a standard solution.

CC(C)C(OC(=O)CC1CC(c2ccc(O)c(F)c2)=NO1)C(C)C (stereo not shown) [ISO-63]
leukocyte recruitment (total number of infiltrating cells) [1]: inhibits leukocyte recruitment; also recorded: caused a significant reduction in leukocyte recruitment | invasion of RA-FLS into Matrigel (migrated cells) [2]: inhibits the invasion; also recorded: reduced cell invasion to a much greater extent than the ISO-1 treatment

COC(=O)C[C@@H]1CC(c2ccc(O)cc2)=NO1 (racemic) [ISO-1, (S,R)-3-(4-hydroxyphenyl)-4,5-dihydro-5-isoxazole acetic acid methyl ester, reference compound]
protection in sepsis model [3]: 80%

COC(=O)C[C@@H]1CC(c2ccc(O)cc2)=NO1 [(S)-ISO-1]
less active than the (R)-isomer [4]: 50%
